Laboratory results reported in ChEMBL document CHEMBL3886984, “Tetrahydroimidazo(1,5-D)[1,4]oxazepine derivative” (2016).

Biological target: Metabotropic glutamate receptor 2 (Homo sapiens, UniProt Q14416)
Experiment: [35S]GTPgammaS Binding Assay: The frozen cell membrane fraction prepared as described above was thawed before use, and the resultant was diluted with a buffer for a binding assay (final concentrations: 20 mM HEPES, 100 mM NaCl, 1 mM MgCl2, 3 uM GDP, 300 ug/mL saponin, 0.1% BSA). The compound of each example was added to a cell membrane fraction containing 1.8 to 3 ug/assay of membrane protein on a plate, followed by incubation at room temperature for 30 minutes. Thereafter, with glutamic acid (in a final concentration of 10 uM) added thereto, incubation was performed at room temperature for 15 minutes, and thereafter, [35S]GTPγS (in a final concentration of 0.8 kBq) and 588 ug WGA-SPA beads were added thereto, followed by incubation at room temperature for 1 hour. After the incubation, the plate was subjected to the centrifugal separation at 2,500 rpm and room temperature, and then, membrane cell binding radioactivity was measured with a top count. A [35S]GTPγS binding amount obtained in the presence of glutamic acid was defined as specific binding. On the basis of ratios of inhibiting the specific binding at various concentrations of the compounds of the respective examples, inhibition curves were obtained. […]
Assay type: functional

Metabotropic glutamate receptor 2, sequence (Q14416 whole entry): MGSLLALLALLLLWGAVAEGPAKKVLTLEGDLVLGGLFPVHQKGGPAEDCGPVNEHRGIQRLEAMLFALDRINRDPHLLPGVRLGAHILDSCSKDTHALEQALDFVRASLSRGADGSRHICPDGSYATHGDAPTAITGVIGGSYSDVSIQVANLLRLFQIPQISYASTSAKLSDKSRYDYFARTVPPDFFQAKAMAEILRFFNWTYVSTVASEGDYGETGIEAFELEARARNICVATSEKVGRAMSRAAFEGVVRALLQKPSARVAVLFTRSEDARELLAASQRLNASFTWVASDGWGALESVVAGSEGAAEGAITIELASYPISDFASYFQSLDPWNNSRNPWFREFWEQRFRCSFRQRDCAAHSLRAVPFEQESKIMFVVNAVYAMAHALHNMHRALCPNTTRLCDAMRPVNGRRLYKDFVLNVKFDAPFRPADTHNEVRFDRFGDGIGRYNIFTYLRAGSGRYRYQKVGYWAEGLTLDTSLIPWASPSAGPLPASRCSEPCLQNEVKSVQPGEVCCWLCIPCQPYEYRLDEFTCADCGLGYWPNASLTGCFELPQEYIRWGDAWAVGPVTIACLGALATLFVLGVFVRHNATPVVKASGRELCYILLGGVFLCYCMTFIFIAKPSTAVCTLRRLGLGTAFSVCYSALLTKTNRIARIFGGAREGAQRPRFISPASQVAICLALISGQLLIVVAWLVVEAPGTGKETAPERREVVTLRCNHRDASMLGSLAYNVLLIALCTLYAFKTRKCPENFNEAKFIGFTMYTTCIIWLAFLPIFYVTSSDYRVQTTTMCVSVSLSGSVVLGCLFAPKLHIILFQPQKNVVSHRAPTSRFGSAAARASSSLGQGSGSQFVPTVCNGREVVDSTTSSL

In the case of `CCc1ccc(-c2nc(-c3cc(C)nc(C)c3)c3n2C[C@@H](C)OCC3)cc1OC`, the IC50 is reported as 4.2 nM.
